Results on one compound are retold here after patent publication US20150056166A1, “FLAVONE DERIVATIVES AND THEIR USE” (Twincore GmbH, priority 2012, published 2015).

In assay [1] the test system is Jc1. Nature of the assay: HCV virus assembly/release, intra- and extracellular core protein after Jc1 RNA transfection. The conditions noted are these: up to a dose of 20 μM, 48 h after transfection. Type of assay: cell-based. The protocol: (A) Huh7-Lunet/CD81 cells were transfected with the subgenomic luciferase replicon depicted at the top. Drugs were added 4 h post transfection and the level of HCV RNA translation and RNA replication was quantified by luciferase assays 72 h post transfection. Mean values of three independent experiments each with quadruplicate measurements including the standard deviation are shown. (B) Cells were transfected with the Jc1 chimera depicted above and drugs were added 4 h later. HCV virus release in the presence or absence of given compounds was determined by quantification of intracellular and extracellular core protein levels using a core-specific ELISA. Mean values of three independent experiments with single measurements including the error range are given. (C) Huh7-Lunet/CD81 cells were inoculated with Luc-Jc1 reporter viruses prepared in the absence of drugs. BJ486K was added to the cells only prior to inoculation (black), only during inoculation (grey) or selectively directly after inoculation (white) as schematically depicted at the top. Infectivity was determined 72 h later by luciferase assays and compared to DMSO-treated controls. Mean values of three independent experiments each with quadruplicate measurements including the standard deviation are shown.
Huh7-Lunet/CD81 cells were transfected with Jc1 RNA and seeded on a 6-well plate. Compounds were added 4 h later. At 48 h after transfection, cell culture supernatant was harvested and used for measuring the extracellular core amount. Cells were washed once with PBS, scraped and centrifuged for 5 min at 1000×g. Cell pellets were resuspended in 500 μl fresh culture fluid and subjected to three cycles of freeze and thaw using liquid nitrogen and a 37° C. thermo block. Samples were than centrifuged at 10,000×g for 10 min to remove cell debris and the core amount was measured (intracellular core protein) using the […] […]
To determine whether BJ486K affects virus assembly or release we transfected Huh7-Lunet/CD81 cells with Jc1 RNA and quantified intra- and extracellular levels of core protein 48 h after transfection (FIG. 2B).

In assay [2] the test system is SA13 (GT5a). Nature of the assay: Luciferase infection assay, chimeric reporter virus SA13/5a/R2a in Huh7-Lunet/CD81 cells. The conditions noted are these: Hepatitis C virus, Huh-7, 72 h. The format is cell-based, HCV.
In assay [3] the test system is JcR-2a virus. Nature of the assay: microbe, parasite or virus in culture. The format is cell-based, HCV. As to the method: Combined effects of CsA on BJ486K and vice versa were analysed by inoculation of Huh7-Lunet/CD81 cells with JcR-2a virus in the presence of given drugs and determination of luciferase activity 72 h later. Mean values of three independent experiments each conducted in triplicates including the standard deviations are given. Data are normalized for values determined in mock treated controls.
Huh7-Lunet/CD81 cells were infected with reporter virus particles essentially as described recently (Koutsoudakis et al., J. Virol. 2006; 80: 5308-5320). Briefly, for inoculation with firefly luciferase reporter virus particles (Luc-Jc1) and Renilla reporter viruses (JcR-2a (Reiss et al., Cell host & microbe 2011; 9: 32-45) and GT1-6, see plasmids below), Huh7-Lunet/CD81 cells were seeded at a density of 6×10 e4 cells per well of a 12-well plate or 6.6×10 e3 cells per well of a 96-well plate 24 h prior to inoculation. If not stated otherwise, the virus particles were pretreated with the inhibitors for 1 h at 37° C. Cells were inoculated for 4 h at 37° C., viral inoculum was replaced by fresh culture fluid and infection was quantified 48 h or 72 h after virus inoculation using luciferase assays. To this end, cells were washed once with PBS and in the case of the Luc-Jc1 infected cells, lysed directly on the plate with 350 μl of cold lysis buffer (0.1% Triton-X100, 25 mM glycylglycine, 15 mM MgSO4, 4 mM EGTA and 1 mM dithiothreitol, pH 7.8) and after addition of the luciferase solution (200 μM luciferin, 25 mM glycylglycine, pH8) measured for 20 s in a luminometer (Lumat LB9507, Berthold, Freiburg, Germany). Cells infected with the renilla reporter virus were lysed in 200 μl lysis buffer (Promega, Mannheim, Germany) and after addition of the luciferase substrate (1 μM of coelenterazin (P. J. K., Kleinblittersdorf, Germany) in PBS) measured for 1 s in a luminometer (Lumat LB9507, Berthold, Freiburg, Germany). The indicated IC50 values were determined by using Sigma Plot software (Systat Inc; San Jose; Calif.). […]

In assay [4] the test system is Luc-Jc1/E2/G451R reporter viruses. Nature of the assay: Resistance test, Luc-Jc1 versus Luc-Jc1/E2/G451R reporter virus. The format is cell-based, HCV. The conditions noted are these: Huh7-Lunet/CD81 cells, luciferase 72 h. The protocol:
FIG. 4: BJ486K is not affected by viral resistance towards a SR-BI-targeting compound, inhibits HCV of different genotypes and prevents infection of primary human hepatocytes Huh7-Lunet/CD81 cells were inoculated with Luc-Jc1 or Luc-Jc1/E2/G451R reporter viruses in the presence of increasing doses of (A) ITX 5061 or (B) BJ486K. Cells were lysed 72 h later. Luciferase activity was determined and is expressed relative to control infections conducted in the presence of DMSO. Mean values of four independent experiments each with quadruplicate measurements including the standard deviation are shown. (C) Huh7-Lunet/CD81 cells were inoculated with genotype 1a, 1b, 2b, 3a, 4a, 5a and 6a chimeric reporter viruses in the presence of increasing doses of BJ486K. Luciferase activity was determined 72 h later and is expressed relative to infections in the presence of DMSO. Mean values of three independent experiments, each with triplicate measurements, are given. (D) Primary human hepatocytes were inoculated with Con1/C3 in the presence of DMSO or increasing concentrations of BJ486K. The inhibition of HCV infection was assessed by focus-formation assay and is expressed as % inhibition relative to DMSO-treated cells. Mean values of duplicate measurements including the error range are given. […]

Regarding `COc1ccc(-c2cc(=O)c3c(O)c(O)c(OC)cc3o2)cc1` [BJ486K, 5,6-Dihydroxy-7-methoxy-2-(4-methoxy-phenyl)-chromen-4-one], the “intracellular and extracellular core protein levels” value in assay [1] is “reduced neither intracellular nor extracellular core protein levels”. The IC50 (in general, the concentration that gives 50% inhibition) was 1390 nM in assay [2] and roughly 400 nM in assay [3] (Hepatitis C virus, Huh-7, read-out: IC50 of BJ486K). Further, the IC90 (as a rule, the concentration at which the effect reaches the 90% level) in assay [2] is 5330 nM; in assay [3] (Hepatitis C virus, Huh-7, 72 h), 4370 nM. The “decrease of the IC50 of BJ486K” value in assay [3] (100 ng/mL of CsA) is reported as “ca. 3 fold”. For the same compound, in assay [4], the “antiviral activity against G451R mutant compared with wild type” value was “not changed”.
